Patent US20100069302A1, “SPECIFIC THERAPY AND MEDICAMENT USING INTEGRIN LIGANDS FOR TREATING CANCER” (priority 2007, published 2010)
Several values for one entry are separate records, joined by “and”; a condition that tells them apart may be missing. Equal entries are not always repeated. Entries after “also recorded” stand apart in the source; their conditions may differ.

How the values were obtained:
[1] = test system: U251 human glioblastoma cells; assay: Rat orthotopic glioblastoma model radiotherapy, cilengitide scheduling experiments; format: in vivo, NIH mu nude rats; details: for Days Post Implant (survival): listed as Rt + EMD, 4 mg/kg
Protocol: NIH mu nude rats are anaesthetized, restrained, and injected intracerebrally 1 mm retro orbitally, 3 mm to the right of the bregma and at a depth of 2.5 mm with 5×10E5 U251 human glioblastoma cells suspended in 10 ul of culture medium, using a #2701 Hamilton syringe fitted with a 26 gauge needle, essentially as previously described (Engebraaten et al., 1999). After 14 days, cilengitide (4 mg/kg) is given as an intraperitoneal bolus in PBS, at various time (8 h, 4 h, 2 h, 1 h) prior to a single treatment with single, collimated, dorsal-ventral beam of 6 MV x-rays, so that 95-100% of the central axis dose of 25 Gy hit the tumor volume (Kim et al., 1999). Each of the 7 subsequent days the animals also received an identical i.p. bolus of cilengitide. The animals are maintained under ad libitum food and drink until they become moribund, or are sampled for tissue analysis (in the t-4 and t-8 h groups, where the animals are healthy past 230 days post tumor injection). A Kaplan-Meier survival curve is calculated and plotted (FIG. 1) from the raw data (Table 1). All animals in the RT monotherapy group died by 120 d.

[2] = test system: patients with recurrent glioblastoma (GBM); assay: Phase IIa trial of cilengitide single agent therapy in patients with recurrent glioblastoma; format: in vivo, human
Protocol: Background: The present phase IIa study was designed to evaluate the safety, toxicity, and clinical activity of the cyclic RGD pentapeptide cilengitide ((=cyclo-(Arg-Gly-Asp-DPhe-NMe-Val)), an inhibitor of integrins αvβ3 and αvβ5, as a single agent at doses of 500 and 2000 mg in patients (pts) with recurrent glioblastoma (GBM).
Methods: In this multicenter, open-label, randomized, uncontrolled study, pts with GBM and measurable disease that had relapsed after previous therapy with temozolomide and radiotherapy were randomized to receive cilengitide at doses of either 500 mg or 2000 mg i.v., 2×/week, until progression.
Histopathology diagnosis and MRI imaging were subject to independent blinded review. The primary endpoint was Progression Free Survival (PFS) at 6 months (mths). Secondary endpoints included response, survival, time to disease progression, safety, tolerability and pharmacokinetics.

[3] = test system: patients with newly diagnosed glioblastoma (GBM); assay: Phase I/IIa trial of cilengitide and temozolomide with concomitant radiotherapy, then maintenance, in newly diagnosed glioblastoma; format: in vivo, human
Protocol: Patients and methods: Fifty-two pts (PS 0-1: 92%, 2: 8%; median age 57 yrs) after biopsy (n=9/17%) or tumor resection (n=43/83%) were treated with standard TMZ/RT (Stupp et al. NEJM 2005). In addition Cilengitide (500 mg i.v., 2×/week) was started one week before TMZ/RT and given throughout for the duration of chemotherapy or until progression. Primary endpoint was progression free survival rate at 6 months (target: 65%). Patients were followed with MRI every 2 months. Histopathologic diagnosis and MRI imaging were independently reviewed, MGMT promoter methylation status was assessed in 45 (86.5%) pts.

NSCLC (A549) = assay: Proliferation assay (vitronectin-coated plates, Alamar Blue); format: cell-based; details: A549, 72 hours; concentration held constant in combination with chemotherapeutic agents; read-out: constant EC50 concentration of alpha V integrin blocker
Protocol: A549-DMEM containing 10% FCS (heat-inactivated) plus 2 mM glutamine,
(§1) Briefly, 2.5×10e4 cells/well in RPMI containing 0.5% BSA and 25 mM Hepes pH 7.4 attached to non-tissue culture treated 96-well plates coated with serially diluted vitronectin, fibronectin, fibrinogen and collagen I for 60 minutes at 37° C. After washing to remove unbound cells the relative cell number is determined by incubation with hexosaminidase substrate. The colormetric reaction is read at 405 nm in a Genios plate reader (SLT). Proliferation assay Non-tissue cultures treated 96 well plates are coated using 100 ul/well of a 2 ug/ml vitronectin solution in PBS incubated overnight at 4° C. Cells are plated at 5×10e3 in 100 ul cell culture medium (as described above for each cell line). […] Plates are incubated for 72 hours, after which relative cell number is determined by the addition of 20 ul/well Alamar Blue (Resazurin) (Nakayama et al. 1997). After 4 hours of incubation at 37° C. relative fluorescent intensity is read in a Genios plate reader (SLT) at 535/590 nm (excitation/emission).
(§2) Points are run in triplicate. Reagent blanks, containing media plus colormetric reagent without cells, are run on each plate. Blank values are subtracted from test values and are routinely 5-10% of uninhibited control values. […]

[4] = test system: Endothelial Cells (HUVEC); assay: as above; format: cell-based; details: 72 hours, concentration held constant in combination with chemotherapeutic agents, read-out: constant EC50 concentration of alpha V integrin blocker
Protocol: HUVEC-DMEM containing 10% FCS (heat-inactivated) plus 2 mM glutamine and 1 mM sodium pyruvate.
as §1, §2

various brain tumors = details: cited from earlier work

CC(C)[C@H]1C(=O)N[C@@H](CCCN=C(N)N)C(=O)NCC(=O)N[C@@H](CC(=O)O)C(=O)N[C@H](Cc2ccccc2)C(=O)N1C [Cilengitide, cyclo-(Arg-Gly-Asp-DPhe-NMeVal)]
Days Post Implant (survival) ([1]; cilengitide bolus 4 mg/kg i.p. 1 hour pre-irradiation (Rt 25 Gy) plus 7 daily boluses, all Sick (moribund)): 112 days and 113 days and 130 days and 141 days | Days Post Implant (survival) ([1]; cilengitide bolus 4 mg/kg i.p. 2 hours pre-irradiation (Rt 25 Gy) plus 7 daily boluses, all Sick (moribund)): 120 days and 147 days and 162 days and 196 days | Days Post Implant (survival) ([1]; cilengitide bolus 4 mg/kg i.p. 4 hours pre-irradiation (Rt 25 Gy) plus 7 daily boluses, Healthy/Alive animals not dead at day shown): 238 days and 254 days | Days Post Implant (survival) ([1]; cilengitide bolus 4 mg/kg i.p. 8 hours pre-irradiation (Rt 25 Gy) plus 7 daily boluses, Healthy/Alive animals not dead at day shown): 287 days and 257 days | animals healthy, days post tumor injection ([1]; t-4 and t-8 h groups, cilengitide 4 mg/kg plus 25 Gy): > 230 days | median Overall Survival (mOS) ([2]; 500 mg arm, i.v. 2x/week): 6.5 mths | tumor control, dose comparison ([2]; 2000 mg 2x/week versus 500 mg, not statistically significant): trend towards better tumor control | 12 mth overall survival (OS) rate ([2]; 2000 mg arm, i.v. 2x/week): 37.5% | median Overall Survival (mOS) ([2]; 2000 mg arm, i.v. 2x/week): 9.9 mths | Treatment related NCI CTC grade 3 adverse events ([2]; at 500 mg, each in 1 patient): elevated liver enzymes; also recorded: arthralgia/myalgia | Treatment related NCI CTC grade 3 adverse events ([2]; at 2000 mg, in 1 patient): weight increase/edema | grade 4 therapy related AEs ([2]; both arms): No grade 4 therapy related AEs | pts who received 12 or more cycles of therapy ([2]; both arms, 10 pts (n=4 with 500 mg, n=6 with 2000 mg), 1 cycle=4 weeks): 12.3% | pts still progression-free and on treatment ([2]; both arms, six pts, at time abstract was issued): 7.4% | cerebral hemorrhage ([2]; possibly related either to the drug or to the disease): One CTC grade 2 cerebral hemorrhage | single agent activity ([2]; recurrent glioblastoma): advantageous single agent activity | tolerability ([2]; single agent therapy at two dose levels): tolerated well | haematological grade 3 and 4 toxicity: neutropenia ([3]; Cilengitide 500 mg plus TMZ/RT, 5/52): 9.6% | Treatment related non-hematologic grade 3 toxicities, patients ([3]; Cilengitide 500 mg plus TMZ/RT, n=3/52): 5.7% | PFS-6 rate ([3]; Cilengitide 500 mg plus TMZ/RT, subgroup with methylated MGMT promoter (23/52)): 91% | tolerability ([3]; combination of Cilengitide and TMZ/RT): well tolerated | other adverse event ([3]; one patient with a history of sigmoid diverticulosis): sigmoid perforation (grade 2) | EC50 (NSCLC (A549)): 6 nM | EC50 [4]: 0.2 nM | MTD in humans (various brain tumors; human, in vivo): no known MTD | tolerability (various brain tumors; human, in vivo): very well tolerated | response (various brain tumors; in some of the GBM patients): an indication of response was seen
